Tests used:
[1] = Body weight-reducing test using DIO (diet-induced obesity) mice (1), Example 3; assay type: in vivo, mouse; conditions: Compound A alone 10 mg/100 g in-feed; high fat diet-fed C57BL/6J mice
Description: High fat diet-fed, male C57BL/6J mice (Clea Japan, Inc.) were used in the test.
Fed a high fat diet was carried out by allowing 3-week-old, male C57BL/6J mice (Clea Japan, Inc.) to free access to a high-fat diet having 37.2 w/w % fat content and 5.578 kcal/g calorie level (available from Oriental Yeast Co., Ltd.) for feed. Normal diet control mice were allowed free access to CRF-1 (fat content: 5.7 w/w %, calorie level: 3.59 kcal/g, available from Oriental Yeast Co., Ltd.).
The mice were used in the test after housing to age 39 weeks while fed a high fat diet in this manner.
These study animals were used in the test after first grouping according to body weight and blood sugar level.
The animals were administered test DPP4 inhibitor and test sweetener either orally or in-feed. […]
Body weight and food intake were measured over time after the start of administration of the test substances.
Moreover, in the case body weight-reducing effect was observed, body composition was measured using a laboratory mouse X-ray body fat percentage measuring device (PIXImus2, GE Medical Systems Inc.) under pentobarbital anesthesia (70 mg/kg, i.p.). […]

active GLP-1 in plasma [2] = assay: GLP-1 secretion-stimulating action by combined use of DPP4 inhibitor and sweetener (1), Example 2; assay type: in vivo, mouse; conditions: C57BL/6J mice
Description: Male SD(CD)/Crj rats (Charles River Laboratories Japan, Inc.) (6-week-old at time of use) or male C57BL/6J mice (Clea Japan, Inc.) (9-week-old at time of use) were used in the test.
These study animals were used in the test after first grouping according to body weight. The animals were orally administered (10 mL/kg) a test DPP4 inhibitor (or purified water as a control). At 30 minutes after administration, the animals were then orally administered (10 mL/kg) a solution of a test sweetener (or purified water as a control) followed by collecting blood samples at 0, 30, 60, 180 and 300 minutes after administration. These samples were then measured for concentrations of active GLP-1 in plasma.
Measurement of plasma active GLP-1 concentrations was carried out in the same manner as (1) of Example 1 above.
The measurement results were tested for the presence of a significant difference between groups by comparing the sweetener-loaded groups with the control group using Dunnett's multiple comparison test (two-sided test). Here, a P value less than 5% was considered statistically significant, and statistical analysis software (EXSAS: Biological Experimental Data Statistical Analysis System, Arm Systex Co., Ltd.) was used to analyze the data.
C57BL/6J mice were used for the study animals. […]

[3] = administration to mice; JP H6-65080; cited from earlier work
active GLP-1 in plasma [4] = assay: GLP-1 secretion-stimulating action by combined use of DPP4 inhibitor and sweetener (2), Example 4; assay type: in vivo, mouse; conditions: 1 hour after dosing, relative to 100 for Compound A′ and fructooligosaccharide 6 g/kg, C57BL/6J mice
Description: Male C57BL/6J mice (Clea Japan, Inc.) (7-week-old at time of use) were used in the test.
These study animals were used in the test after first fasting starting on the night prior to the test and then grouping according to body weight. The animals were orally administered test DPP4 inhibitor (or purified water as a control) (10 mL/kg). At 30 minutes after administration, the animals were then orally administered (10 mL/kg) a solution of test sweetener (or purified water as a control) followed by collecting blood samples at 0, 30, 60, 180 and 300 minutes after administration. These samples were then measured for concentrations of active GLP-1 in plasma.
Measurement of plasma active GLP-1 concentrations and analysis and testing of the measurement results were carried out in the same manner as (1) of Example 1 above.
Fructooligosaccharide (Meiji Seika Kaisha Ltd.), kestose (Meiji Seika Kaisha Ltd., GF2), raffinose (Wako Pure Chemical Industries, Ltd.), melibiose (Wako Pure Chemical Industries, Ltd.), xylooligosaccharide (Suntory Ltd.), xylose (Wako Pure Chemical Industries, Ltd.), xylitol (Wako Pure Chemical Industries, Ltd.), sorbitol (Wako Pure Chemical Industries, Ltd.), D-mannitol (Wako Pure Chemical Industries, Ltd.), erythritol (Wako Pure Chemical Industries, Ltd.), maltitol (Hayashibara Biochemical Laboratories, Inc.), sucralose (San-Ei Gen F.F.I., Inc.) or acesulfame K (Wako Pure Chemical Industries, Ltd.) was used as sweetener and administered orally (10 mL/kg) at 6 g/kg, 3 g/kg or 1 g/kg.
In addition, (2S)-2-cyano-1-[trans-4-(dimethylaminocarbonyl)cyclohexylamino]acetylpyrrolidine benzenesulfonate (hereafter referred to as Compound A′) as DPP4 inhibitor (or purified water as a control) was used at 10 mg/kg and administered orally (10 mL/kg).
Blood active GLP-1 level-increasing action was tested for the cases of combined use of DPP4 inhibitor and each type of sweetener in accordance with the method described in (1) above (n=4 to 5 animals per group).
Blood active GLP-1 concentrations (1 hour after dosing) in the groups dosed with both each type of sweetener (6 g/kg, 3 g/kg or 1 g/kg) and Compound A′ (10 mg/kg) were represented as relative values with respect to blood active GLP-1 concentrations (1 hour after dosing) in the group dosed with fructooligosaccharide (6 g/kg) and Compound A′.

GLP-1 = conditions: Shima et al., Acta Endocrinologica 1990; cited from earlier work
active GLP-1 in plasma [5] = assay: GLP-1 secretion-stimulating action of sweetener in DPP4-deficient rats (blood active GLP-1 level-increasing action), Example 1; assay type: in vivo, rat; conditions: sweetener alone 3 to 6 g/kg/10 mL orally; DPP4-deficient F344DucrlCrlj rats
Description: Male […] rats (Charles River Laboratories Japan, Inc.) (7 to 10-week-old at time of use) were used for the study animals. […] rats are known to be rats of a strain having a spontaneous DPP4 gene deficiency (Watanabe, et al., Experientia, 1987, 43:400-401). These study animals were used in the test after fasting starting on the night prior to the test and grouping according to body weight. The animals were orally administered (10 mL/kg) a solution of the test sweetener (or purified water as a control) followed by collecting blood samples from the tip of the tail at 0, 30, 60, 180 and 360 minutes after dosing. These samples were then measured for concentrations of active GLP-1 in plasma. Measurement of plasma active GLP-1 concentrations was carried out in the following manner. […] Plasma GLP-1 concentrations were then measured using the Bio-Plex Suspension Array System (Rat Endocrine LINCOplex Kit; available from Linco Research, Inc.) or the Glucagon-like Peptide-1 (Active) ELISA KitTM (available from Linco Research, Inc.; active GLP-1 measurement kit). The measurement results were tested for the presence of a significant difference between groups by comparing the sweetener-loaded group with the control group using Dunnett's multiple comparison test (two-sided test). […] Biological Experimental Data Statistical Analysis System, from Arm Systex Co., Ltd.) was used to analyze the data.

[6] = sweetener 6 g/kg orally combined with Compound A′ 10 mg/kg orally

CN(C)C(=O)[C@H]1CC[C@H](NCC(=O)N2CCC[C@H]2C#N)CC1.Cl (relative stereo) [Compound A, (2S)-2-cyano-1-[trans-4-(dimethylaminocarbonyl)cyclohexylamino]acetylpyrrolidine hydrochloride]
body weight as compared with the control group [1]: no changes in body weight | plasma active GLP-1 levels (active GLP-1 in plasma [2]; Compound A 10 mg/kg orally alone): no increases in plasma active GLP-1 levels observed

O=C[C@H](O)[C@@H](O)[C@@H](O)CO [L-arabinose]
weight gain [3]: inhibited weight gain in mice

OC[C@@H](O)[C@@H](O[C@H]1O[C@H](CO)[C@@H](O)[C@H](O)[C@H]1O)[C@H](O)[C@@H](O)CO [Maltitol, α-D-glucopyranosyl-(1→4)-D-glucitol]
Plasma active GLP-1 concentration (relative value) (active GLP-1 in plasma [4]; [6]): 422 | blood GLP-1 levels following administration (GLP-1): blood GLP-1 levels are increased

OC[C@@H](O)[C@H](O)[C@@H](O)CO [Xylitol, xylitol]
Plasma active GLP-1 concentration (relative value) (active GLP-1 in plasma [4]; sweetener 3 g/kg orally combined with Compound A′ 10 mg/kg orally): 272 | Plasma active GLP-1 concentration (relative value) (active GLP-1 in plasma [4]; [6]): 774 | levels of active GLP-1 in plasma as compared with the control group (active GLP-1 in plasma [5]): remarkably high values

O=C[C@H](O)[C@@H](O)[C@H](O)CO [Xylose, xylose]
Plasma active GLP-1 concentration (relative value) (active GLP-1 in plasma [4]; [6]): 597 | levels of active GLP-1 in plasma as compared with the control group (active GLP-1 in plasma [5]): remarkably high values | levels of active GLP-1 in plasma in comparison with the control group (active GLP-1 in plasma [2]; sweetener 6 g/kg orally combined with Compound A 10 mg/kg orally, fructooligosaccharide: at 30, 60, 180 and 300 minutes): remarkable increases in plasma active GLP-1 levels were observed
